Experimental data from the Biogen ADME set (Fang et al. 2023).
In brackets after ≈: the same amount, converted by molar mass.

Details: for aqueous solubility: pH 6.8

| MDR1-MDCK efflux ratio | intrinsic clearance, human liver microsomes | intrinsic clearance, rat liver microsomes | aqueous solubility | fraction unbound, human plasma | fraction unbound, rat plasma | SMILES |
| --- | --- | --- | --- | --- | --- | --- |
| 11.9 | 423 mL/min/kg | 2100 mL/min/kg |  |  |  | CCOc1ccc(CNC(=O)Cn2ccc3cc(S(=O)(=O)N4CCCC4)ccc32)cc1 |
| 1.33 | ≤ 4.74 mL/min/kg | 72.8 mL/min/kg | 35.1 µg/mL (≈ 103 µM) |  |  | Fc1ccc(F)c(-c2nc(C3CCOCC3)nn2-c2cccnc2)c1 |
| 0.629 | 69.6 mL/min/kg | 497 mL/min/kg | 55.5 µg/mL (≈ 165 µM) |  |  | O=C(CCc1cc2ccccc2o1)N1CCN(c2cnccn2)CC1 |
| 0.636 | 52.1 mL/min/kg | 935 mL/min/kg | 22.4 µg/mL (≈ 75.6 µM) |  |  | Cc1nnc(NCCc2ccc3c(c2)OCO3)c(C#N)c1C |
|  | 432 mL/min/kg | 1450 mL/min/kg |  |  |  | Cc1cc(OCC(=O)N2CCC(n3c(=O)[nH]c4ccccc43)CC2)ccc1Cl |
| 9.52 | 218 mL/min/kg | 2960 mL/min/kg | 69.7 µg/mL (≈ 164 µM) |  |  | COc1ccccc1CNC(=O)c1cnc(C2CCN(C(=O)C(C)(C)C)CC2)nc1C |
| 0.755 | 158 mL/min/kg | 3190 mL/min/kg | 37 µg/mL (≈ 106 µM) |  |  | COc1ccccc1-c1nnc([C@H]2CCN(Cc3ccccc3C)C2)o1 |
| 22.3 | ≤ 4.74 mL/min/kg | 16.1 mL/min/kg |  |  |  | CCCOc1c2c(nc3cc(C4CCOCC4)nn13)CCC2 |
| 7.15 | 15.3 mL/min/kg | 376 mL/min/kg | 45.2 µg/mL (≈ 129 µM) |  |  | Cc1ccccc1COC1CN(C(=O)Cn2c(=O)[nH]c3ccccc32)C1 |
| 0.806 | 11.4 mL/min/kg | 270 mL/min/kg |  |  |  | COc1ccc(=O)n(Cc2noc3c2CCCC3)n1 |
| 5.07 | 166 mL/min/kg | 497 mL/min/kg | 1.29 µg/mL (≈ 3.32 µM) |  |  | Cc1noc(C)c1CC(=O)N1CCc2[nH]c3ccc(Br)cc3c2C1 |

Further lines, the compound ahead of its results:

| SMILES | MDR1-MDCK efflux ratio | intrinsic clearance, human liver microsomes | intrinsic clearance, rat liver microsomes | aqueous solubility | fraction unbound, human plasma | fraction unbound, rat plasma |
| --- | --- | --- | --- | --- | --- | --- |
| COCCc1nc(CCCn2cccn2)n(C2Cc3ccccc3C2)n1 | 9.86 | 25.1 mL/min/kg | 550 mL/min/kg | 21.4 µg/mL (≈ 60.9 µM) |  |  |
| CNc1ccc(/C=C/C=C/c2nc3ccc(O)cc3s2)cn1 |  |  |  | 0.22 µg/mL (≈ 0.711 µM) |  |  |
| Cc1cccc(C)c1CNC1(CCO)CCOCC1 | 0.972 | ≤ 4.74 mL/min/kg | 74.3 mL/min/kg |  |  |  |
| Cc1cc(F)ccc1C(=O)NCc1ccc(O)c(O)c1 |  | ≤ 4.74 mL/min/kg | 83.9 mL/min/kg | 40.5 µg/mL (≈ 147 µM) |  |  |
| O=C(C1CC1)N1CCC(CNS(=O)(=O)N2CCCCCC2)CC1 | 15.2 | 40.4 mL/min/kg | 1320 mL/min/kg |  |  |  |
| Cc1cc(C)c(NC(=O)Cn2nnn(-c3cccs3)c2=O)c(C)c1 | 0.738 |  |  | 0.77 µg/mL (≈ 2.24 µM) |  |  |
| CSc1ccccc1S(=O)(=O)NC1CCC(CN(C)C)CC1 (configuration not stated) | 8.91 | ≤ 4.74 mL/min/kg | 440 mL/min/kg |  |  |  |
| Cc1ncccc1CNc1ccc(CC#N)cc1 | 0.534 | 18.2 mL/min/kg | 364 mL/min/kg |  |  |  |
| Cc1nc2ccc(C(=O)NCCCc3ccc(F)cc3)cc2[nH]1 |  | 8.01 mL/min/kg | 195 mL/min/kg | 47.9 µg/mL (≈ 154 µM) |  |  |
| CC1(C)CC(=O)C2=C(C1)NC(=O)CC2c1ccc(Br)cc1 (configuration not stated) | 3.38 | 59.6 mL/min/kg | 247 mL/min/kg |  | 0.144 | 0.088 |
| CCC(CC)NC(=O)c1ccc2ncsc2c1 | 0.527 | 7.3 mL/min/kg | 20.5 mL/min/kg | 22.2 µg/mL (≈ 89.4 µM) |  |  |
| N#Cc1ccc(COc2ccccc2C#N)cc1 |  |  |  | 1.71 µg/mL (≈ 7.3 µM) |  |  |
| CNC(=O)Cc1nc(-c2cncc(C)c2)cs1 | 0.978 | 5.86 mL/min/kg | 14.5 mL/min/kg | 37.6 µg/mL (≈ 152 µM) |  |  |
| NC1CCCC(C(=O)Nc2ccc3[nH]ncc3c2)C1 (configuration not stated) | 0.764 | 12.7 mL/min/kg |  |  | 1 |  |
| c1cnn(-c2ccc(-c3ccc(NC4CC4)nn3)cc2)c1 |  |  |  | 0.78 µg/mL (≈ 2.81 µM) |  |  |
| Cn1cc(CNc2ncccn2)c(C(C)(C)C)n1 | 0.905 | ≤ 4.74 mL/min/kg | 363 mL/min/kg |  |  |  |
| O=C(CCCc1cc(Cl)sc1Cl)N1CC[C@H](O)C1 | 1.49 | 18.6 mL/min/kg | 506 mL/min/kg | 50 µg/mL (≈ 162 µM) |  |  |
| Nc1nnc(-c2ccc3c(c2)OCCO3)o1 | 0.657 | ≤ 4.74 mL/min/kg | 61.4 mL/min/kg | 23.4 µg/mL (≈ 107 µM) |  |  |
| Cc1ccnc(NC(=O)CN(C)C(=O)c2ccc(Cl)cc2)c1 | 1.12 | 16.5 mL/min/kg | 156 mL/min/kg | 63.3 µg/mL (≈ 199 µM) |  |  |
